“And” between values parts separate entries of the source, which are not always exact repeats. Equal entries are not always repeated. Where two headings read alike, the source gives them in different places.
Legend:
[1] = Pharmacokinetic analysis in ferrets after a single oral administration of BXM; assay type: in vivo, ferret
Description: One day prior to administration, group assignment was carried out taking body weight into account. Under isoflurane anesthesia, fasted ferrets (four per group) received BXM (10 or 30 mg/5 mL/kg) suspension orally using an intragastric tube. Blood samples were collected at 0.5, 1, 2, 4, 6, 8, and 24 hours after single oral administration of BXM and centrifuged to obtain plasma. The concentrations of BXA and BXM in plasma were determined by liquid chromatography‐tandem mass spectrometry (LC‐MS/MS). The lower limit of quantification of BXA and BXM in ferret plasma was 0.5 ng/mL. The pharmacokinetic parameters of BXA and BXM were calculated using non‐compartmental analysis module in Phoenix WinNonlin software (version 8.0; Certara LP) (https://onlinehelp.certara.com/phoenix/8.2/topics/nca.htm) based on a non‐compartment model analysis with uniform weighting.

[2] = Stability in plasma, human; assay type: in vitro ADME; details: incubation of BXM; for % Residual in plasma (BXA, calculated from BXM concentration at 0 min as molar concentration): mean of duplicate; for % Residual in plasma Individual value (BXA, from BXM concentration at 0 minutes as molar concentration): duplicates
Description: (§1) Approximately 30 mL of blood from Japanese male healthy volunteers was collected and centrifuged to obtain plasma. Blood samples from ferrets, rats, dogs, and monkeys were collected under anesthesia and centrifuged to obtain plasma. BXM was added to reach a final concentration of 200 ng/mL to all pooled plasma samples per species. After incubation for 5, 15, and 30 minutes at 37°C, twofold volume of ice‐cold acetonitrile/methanol (1:1, v/v) was added to the plasma samples to stop further reactions, which were then centrifuged at 1800 g for 10 minutes prior to LC‐MS/MS analysis of BXM in the supernatants.

[3] = Stability in plasma, ferret; assay type: in vitro ADME; details: incubation of BXM; for % Residual in plasma (BXA, calculated from BXM concentration at 0 min as molar concentration): mean of duplicate; for % Residual in plasma Individual value (BXA, from BXM concentration at 0 minutes as molar concentration): duplicates
Description: as §1

[4] = Stability in plasma, rat; assay type: in vitro ADME; details: incubation of BXM; for % Residual in plasma (BXA, calculated from BXM concentration at 0 min as molar concentration): mean of duplicate; for % Residual in plasma Individual value (BXA, from BXM concentration at 0 minutes as molar concentration): duplicates
Description: as §1

[5] = Stability in plasma, dog; assay type: in vitro ADME; details: incubation of BXM; for % Residual in plasma (BXA, calculated from BXM concentration at 0 min as molar concentration): mean of duplicate; for % Residual in plasma Individual value (BXA, from BXM concentration at 0 minutes as molar concentration): duplicates
Description: as §1

[6] = Stability in plasma, monkey; assay type: in vitro ADME; details: incubation of BXM; for % Residual in plasma (BXA, calculated from BXM concentration at 0 min as molar concentration): mean of duplicate; for % Residual in plasma Individual value (BXA, from BXM concentration at 0 minutes as molar concentration): duplicates
Description: as §1

[7] = test system: influenza A/Kadoma/3/2006 strain; details: A/Kadoma/3/2006, yield reduction assay, cited from earlier work
[8] = parameters: method as in Koshimichi et al., J Pharm Sci 2019;108:1896–1904; details: Japanese patients, ref Koshimichi et al., J Pharm Sci 2019;108:1896–1904, cited from earlier work
[9] = 5% SDS water vs 0.5% MC, BXM 10 mg/kg
[10] = single oral BXM 10 mg/kg, 0.5% MC vehicle, mean of three ferrets
[11] = single oral BXM 10 mg/kg, 5% SDS water vehicle, mean of four ferrets
[12] = single oral BXM 10 mg/kg, individual ferrets (Ferret-01 to Ferret-04)
[13] = single oral BXM 10 mg/kg, mean of four ferrets
[14] = single oral BXM 30 mg/kg, 5% SDS water vehicle, mean of four ferrets
[15] = single oral BXM 30 mg/kg, individual ferrets (Ferret-05 to Ferret-08)
[16] = single oral BXM 30 mg/kg, mean of four ferrets

Structure (SMILES): O=C1c2c(O)c(=O)ccn2N([C@@H]2c3ccccc3SCc3c2ccc(F)c3F)[C@@H]2COCCN12 [BXA, baloxavir acid]
- AUC0-24hr, Ratio to 0.5% MC [1, 9]: 7.0
- C24hr, Ratio to 0.5% MC [1, 9]: 13.6
- Cmax, Ratio to 0.5% MC [1, 9]: 4.2
- T1/2, Ratio to 0.5% MC [1, 9]: 1.5
- Tmax, Ratio to 0.5% MC [1, 9]: 3.0
- AUC0-24hr [1, 10]: 60.2 ng·h/mL
- C24hr [1, 10]: 0.223 ng/mL
- Cmax [1, 10]: 15.8 ng/mL
- T1/2 [1, 10]: 4.60 h
- Tmax [1, 10]: 0.50 h
- AUC0-24 h [1, 11]: 421 ± 119 ng·h/mL
- C 24 h [1, 11]: 3.03 ± 2.33 ng/mL and 3.03 ng/mL
- C max [1, 11]: 66.6 ± 14.6 ng/mL
- T 1/2 (terminal elimination half-life) [1, 11]: 6.91 ± 3.79 h
- T max [1, 11]: 1.50 ± 0.58 h
- AUC0-24hr, individual data [1, 12]: 292 ng·h/mL and 576 ng·h/mL and 439 ng·h/mL and 378 ng·h/mL
- C24hr, individual data [1, 12]: 0.792 ng/mL and 3.90 ng/mL and 1.52 ng/mL and 5.90 ng/mL
- Cmax, individual data [1, 12]: 59.4 ng/mL and 80.1 ng/mL and 77.3 ng/mL and 49.5 ng/mL
- T1/2, individual data [1, 12]: 4.21 h and 6.47 h and 4.57 h and 12.4 h
- Tmax, individual data [1, 12]: 1.00 hr (2×) and 2.00 hr (2×)
- AUC0-24 h [1, 13]: 0.871 ± 0.246 µM·h
- C 24 h [1, 13]: 6.26 ± 4.82 nM
- Cmax ([1]; single oral BXM 10 mg/kg, mean of four ferrets, read-out: C max): 138 ± 30 nM
- AUC0-24 h [1, 14]: 3240 ± 3240 ng·h/mL
- C 24 h [1, 14]: 9.91 ± 8.77 ng/mL and 9.91 ng/mL
- C max [1, 14]: 365 ± 316 ng/mL
- T 1/2 (terminal elimination half-life) [1, 14]: 4.44 ± 0.67 h
- T max [1, 14]: 2.00 ± 1.41 h
- AUC0-24hr, individual data [1, 15]: 7580 ng·h/mL and 3840 ng·h/mL and 1040 ng·h/mL and 508 ng·h/mL
- C24hr, individual data [1, 15]: 21.3 ng/mL and 12.3 ng/mL and 3.38 ng/mL and 2.64 ng/mL
- Cmax, individual data [1, 15]: 754 ng/mL and 489 ng/mL and 128 ng/mL and 89.6 ng/mL
- T1/2, individual data [1, 15]: 3.90 h and 4.32 h and 4.12 h and 5.41 h
- Tmax, individual data [1, 15]: 1.00 hr (2×) and 4.00 hr and 2.00 hr
- AUC0-24 h [1, 16]: 6.71 ± 6.71 µM·h
- C 24 h [1, 16]: 20.5 ± 18.2 nM
- Cmax ([1]; single oral BXM 30 mg/kg, mean of four ferrets, read-out: C max): 755 ± 653 nM
- % Residual in plasma (BXA, calculated from BXM concentration at 0 min as molar concentration) ([2]; 10 min): 8.3%
- % Residual in plasma Individual value (BXA, from BXM concentration at 0 minutes as molar concentration) ([2]; 10 minutes): 8.4% and 8.3%
- % Residual in plasma (BXA, calculated from BXM concentration at 0 min as molar concentration) ([2]; 20 min): 22.4%
- % Residual in plasma Individual value (BXA, from BXM concentration at 0 minutes as molar concentration) ([2]; 20 minutes): 22.4%
- % Residual in plasma (BXA, calculated from BXM concentration at 0 min as molar concentration) ([2]; 30 min): 38.1%
- % Residual in plasma Individual value (BXA, from BXM concentration at 0 minutes as molar concentration) ([2]; 30 minutes): 38.4% and 37.8%
- % Residual in plasma (BXA, calculated from BXM concentration at 0 min as molar concentration) ([3]; 10 min): 4.6%
- % Residual in plasma Individual value (BXA, from BXM concentration at 0 minutes as molar concentration) ([3]; 10 minutes): 4.6% and 4.7%
- % Residual in plasma (BXA, calculated from BXM concentration at 0 min as molar concentration) ([3]; 20 min): 13.9%
- % Residual in plasma Individual value (BXA, from BXM concentration at 0 minutes as molar concentration) ([3]; 20 minutes): 13.8% and 14.1%
- % Residual in plasma (BXA, calculated from BXM concentration at 0 min as molar concentration) ([3]; 30 min): 24.9%
- % Residual in plasma Individual value (BXA, from BXM concentration at 0 minutes as molar concentration) ([3]; 30 minutes): 24.9% and 25.0%
- % Residual in plasma (BXA, calculated from BXM concentration at 0 min as molar concentration) ([4]; 10 min): 104.6%
- % Residual in plasma Individual value (BXA, from BXM concentration at 0 minutes as molar concentration) ([4]; 10 minutes): 102.8% and 106.3%
- % Residual in plasma (BXA, calculated from BXM concentration at 0 min as molar concentration) ([4]; 20 min): 104.0%
- % Residual in plasma Individual value (BXA, from BXM concentration at 0 minutes as molar concentration) ([4]; 20 minutes): 102.2% and 105.9%
- % Residual in plasma (BXA, calculated from BXM concentration at 0 min as molar concentration) ([4]; 30 min): 103.2%
- % Residual in plasma Individual value (BXA, from BXM concentration at 0 minutes as molar concentration) ([4]; 30 minutes): 103.0% and 103.4%
- % Residual in plasma (BXA, calculated from BXM concentration at 0 min as molar concentration) ([5]; 10 min): 2.8%
- % Residual in plasma Individual value (BXA, from BXM concentration at 0 minutes as molar concentration) ([5]; 10 minutes): 2.8%
- % Residual in plasma (BXA, calculated from BXM concentration at 0 min as molar concentration) ([5]; 20 min): 8.2%
- % Residual in plasma Individual value (BXA, from BXM concentration at 0 minutes as molar concentration) ([5]; 20 minutes): 8.1% and 8.2%
- % Residual in plasma (BXA, calculated from BXM concentration at 0 min as molar concentration) ([5]; 30 min): 15.6%
- % Residual in plasma Individual value (BXA, from BXM concentration at 0 minutes as molar concentration) ([5]; 30 minutes): 15.6%
- % Residual in plasma (BXA, calculated from BXM concentration at 0 min as molar concentration) ([6]; 10 min): 9.0%
- % Residual in plasma Individual value (BXA, from BXM concentration at 0 minutes as molar concentration) ([6]; 10 minutes): 8.9% and 9.1%
- % Residual in plasma (BXA, calculated from BXM concentration at 0 min as molar concentration) ([6]; 20 min): 24.0%
- % Residual in plasma Individual value (BXA, from BXM concentration at 0 minutes as molar concentration) ([6]; 20 minutes): 23.5% and 24.6%
- % Residual in plasma (BXA, calculated from BXM concentration at 0 min as molar concentration) ([6]; 30 min): 43.0%
- % Residual in plasma Individual value (BXA, from BXM concentration at 0 minutes as molar concentration) ([6]; 30 minutes): 44.0% and 42.1%
- 90% effective concentration (EC90) [7]: 0.42 ng/mL
- EC90 ([7]; read-out: 90% effective concentration (EC90)): 880 pM
- plasma concentration at 24 hours ([8]; BXM 10 mg): 15.1 (range 6.38‐29.0) ng/mL
- plasma concentration at 24 hours ([8]; BXM 40 mg): 61.5 (range 27.9‐118) ng/mL
